Measured values: patent US11795460B2, “Compositions and methods for TTR gene editing and treating ATTR amyloidosis” (Intellia Therapeutics, Inc., priority 2017, dated 2023)
Strand notation (5' to 3'): a small letter for the sugar, then the base; units joined by * are phosphorothioate-linked, units joined directly phosphodiester-linked; [ ] holds rarer units or linkages, { } end groups; capitals alone tell only the bases. m = 2'-O-methyl; r = 2'-OH (RNA)

B1: G000483: TTR sgRNA modified sequence, Human, SEQ ID No. 90; guide sequence of CR005298 (nucleic acid)
guide: mU*mC*mC*rArCrUrCrArUrUrCrUrUrGrGrCrArGrGrArGrUrUrUrUrArGrAmGmCmUmAmGmAmAmAmUmAmGmCrArArGrUrUrArArArArUrArArGrGrCrUrArGrUrCrCrGrUrUrArUrCrAmAmCmUmUmGmAmAmAmAmAmGmUmGmGmCmAmCmCmGmAmGmUmCmGmGmUmGmCmU*mU*mU*mU
B2: G000489: TTR sgRNA modified sequence, Human, SEQ ID No. 96; guide sequence of CR003344 (nucleic acid)
guide: mU*mU*mU*rGrArCrCrArUrCrArGrArGrGrArCrArCrUrGrUrUrUrUrArGrAmGmCmUmAmGmAmAmAmUmAmGmCrArArGrUrUrArArArArUrArArGrGrCrUrArGrUrCrCrGrUrUrArUrCrAmAmCmUmUmGmAmAmAmAmAmGmUmGmGmCmAmCmCmGmAmGmUmCmGmGmUmGmCmU*mU*mU*mU
B3: G000488: TTR sgRNA modified sequence, Human, SEQ ID No. 95; guide sequence of CR003346 (nucleic acid)
guide: mA*mA*mA*rGrUrUrCrUrArGrArUrGrCrUrGrUrCrCrGrGrUrUrUrUrArGrAmGmCmUmAmGmAmAmAmUmAmGmCrArArGrUrUrArArArArUrArArGrGrCrUrArGrUrCrCrGrUrUrArUrCrAmAmCmUmUmGmAmAmAmAmAmGmUmGmGmCmAmCmCmGmAmGmUmCmGmGmUmGmCmU*mU*mU*mU
B4: G000482: TTR sgRNA modified sequence, Human, SEQ ID No. 89; guide sequence of CR003365 (nucleic acid)
guide: mU*mG*mU*rArGrArArGrGrGrArUrArUrArCrArArArGrGrUrUrUrUrArGrAmGmCmUmAmGmAmAmAmUmAmGmCrArArGrUrUrArArArArUrArArGrGrCrUrArGrUrCrCrGrUrUrArUrCrAmAmCmUmUmGmAmAmAmAmAmGmUmGmGmCmAmCmCmGmAmGmUmCmGmGmUmGmCmU*mU*mU*mU
B5: G000486: TTR sgRNA modified sequence, Human, SEQ ID No. 93; guide sequence of CR003339 (nucleic acid)
guide: mA*mC*mA*rCrArArArUrArCrCrArGrUrCrCrArGrCrArGrUrUrUrUrArGrAmGmCmUmAmGmAmAmAmUmAmGmCrArArGrUrUrArArArArUrArArGrGrCrUrArGrUrCrCrGrUrUrArUrCrAmAmCmUmUmGmAmAmAmAmAmGmUmGmGmCmAmCmCmGmAmGmUmCmGmGmUmGmCmU*mU*mU*mU
B6: G000481: TTR sgRNA modified sequence, Human, SEQ ID No. 88; guide sequence of CR003345 (nucleic acid)
guide: mU*mC*mU*rArGrArArCrUrUrUrGrArCrCrArUrCrArGrGrUrUrUrUrArGrAmGmCmUmAmGmAmAmAmUmAmGmCrArArGrUrUrArArArArUrArArGrGrCrUrArGrUrCrCrGrUrUrArUrCrAmAmCmUmUmGmAmAmAmAmAmGmUmGmGmCmAmCmCmGmAmGmUmCmGmGmUmGmCmU*mU*mU*mU
B7: G000499: TTR sgRNA modified sequence, Human, SEQ ID No. 106; guide sequence of CR005303 (nucleic acid)
guide: mU*mG*mA*rArUrCrCrArArGrUrGrUrCrCrUrCrUrGrArGrUrUrUrUrArGrAmGmCmUmAmGmAmAmAmUmAmGmCrArArGrUrUrArArArArUrArArGrGrCrUrArGrUrCrCrGrUrUrArUrCrAmAmCmUmUmGmAmAmAmAmAmGmUmGmGmCmAmCmCmGmAmGmUmCmGmGmUmGmCmU*mU*mU*mU
B8: G000480: TTR sgRNA modified sequence, Human, SEQ ID No. 87; guide sequence of CR003353 (nucleic acid)
guide: mA*mA*mA*rGrGrCrUrGrCrUrGrArUrGrArCrArCrCrUrGrUrUrUrUrArGrAmGmCmUmAmGmAmAmAmUmAmGmCrArArGrUrUrArArArArUrArArGrGrCrUrArGrUrCrCrGrUrUrArUrCrAmAmCmUmUmGmAmAmAmAmAmGmUmGmGmCmAmCmCmGmAmGmUmCmGmGmUmGmCmU*mU*mU*mU
B9: G000494: TTR sgRNA modified sequence, Human, SEQ ID No. 101; guide sequence of CR003360 (nucleic acid)
guide: mG*mU*mG*rArGrUrCrUrGrGrArGrArGrCrUrGrCrArUrGrUrUrUrUrArGrAmGmCmUmAmGmAmAmAmUmAmGmCrArArGrUrUrArArArArUrArArGrGrCrUrArGrUrCrCrGrUrUrArUrCrAmAmCmUmUmGmAmAmAmAmAmGmUmGmGmCmAmCmCmGmAmGmUmCmGmGmUmGmCmU*mU*mU*mU

Tests used:
[1] = test system: TTR; test: TTR editing in primary human hepatocytes electroporated with Spy Cas9 protein loaded with dgRNAs (Table 7); type: cell-based; conditions: dgRNA electroporated with Spy Cas9 protein (RNP)
Method in brief: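 Editing efficiency is the fraction of NGS reads carrying insertions, deletions or substitutions at the TTR target, measured on MiSeq amplicons from DNA harvested 24, 48 or 72 h post-delivery. Cas9–dgRNA ribonucleoprotein was nucleofected (P3 buffer, EX-147) into primary human or cyno hepatocytes.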

[2] = test system: TTR; test: TTR editing in primary human hepatocytes transfected with Spy Cas9 mRNA and dgRNAs (Table 9); type: cell-based; conditions: dgRNA co-transfected with Spy Cas9 mRNA (SEQ ID NO:2)
Method in brief: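 PHH sequentially lipofected with Spy Cas9 mRNA (100 ng), then crRNA plus tracrRNA (25 nM each) dual-guide lipoplex. Cells harvested 24, 48 or 72 h post-transfection; TTR target amplicons sequenced on Illumina MiSeq, editing given as percent reads with indels or substitutions over total reads.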

[3] = test system: off-target genomic sites; test: Off-target oligo insertion based assay in HEK293_Cas9 cells, dgRNAs and sgRNAs (Tables 23, 24); type: cell-based, human; conditions: for # Sites (off-target integration sites detected): Table 24, TTR sgRNAs in HekCas9 cells, insertion detection method; for # Sites in HekCas9 cells (Example 5): Table 30, TTR sgRNAs, repeated from Example 5 for comparison
Protocol: An oligo insertion based assay (See, e.g., Tsai et al., Nature Biotechnology 33, 187-197; 2015) was used to determine potential off-target genomic sites cleaved by Cas9 targeting TTR. Forty-five dgRNAs from Table 1 (and two control guides with known off-target profiles) were screened in the HEK293 Cas9 cells. The human embryonic kidney adenocarcinoma cell line HEK293 constitutively expressing Spy Cas9 (“HEK293_Cas9”) was cultured in DMEM media supplemented with 10% fetal bovine serum and 500 μg/ml G418. Cells were plated at a density of 30,000 cells/well in a 96-well plate 24 hours prior to transfection. Cells were transfected with Lipofectamine RNAiMAX (ThermoFisher, Cat. 13778150) per the manufacturer's protocol. Cells were transfected with a lipoplex containing individual crRNA (15 nM), trRNA (15 nM), and donor oligo with (10 nM) Lipofectamine RNAiMAX (0.3 μL/well) and OptiMem. Cells were lysed 24 hours post transfection and genomic DNA was extracting using Zymo's Quick gDNA 96 Extraction kit (catalog #D3012) following the manufacturer's recommended protocol. The gDNA was quantified using the Qubit High Sensitivity dsDNA kit (Life Technologies). Libraries were prepared per the previously described method in Tsai et al, 2015 with minor modifications. Sequencing was performed on Illumina's MiSeq and HiSeq 2500. The assay identified potential off-target sites for some of the crRNAs which are plotted in FIG. 2.
Additionally, a subset of the guides was assessed for off-target potential as modified sgRNAs in the Hek_Cas9 cells via the oligo based insertion method described above. The off-target results were plotted in FIG. 4.

| Molecule | Avg % Deletion [1] | Avg % Edit [1] | Avg % Insert [1] | Avg % Deletion [2] | Avg % Edit [2] | Avg % Insert [2] | # Sites (off-target integration sites detected) [3] | # Sites in HekCas9 cells (Example 5) [3] |
| --- | --- | --- | --- | --- | --- | --- | --- | --- |
| CUGGUAUUUGUGUCUGAGGC (tested as dual guide RNA, chemistry not given here) [CR003341] | 4.40% | 11.43% | 7.03% | 9.07% | 15.83% | 6.80% | – | – |
| GCAUGGGCUCACAACUGAGG (tested as dual guide RNA, chemistry not given here) [CR003362] | 0.20% | 7.03% | 6.87% | 0.47% | 6.60% | 6.17% | – | – |
| GCUGCAUGGGCUCACAACUG (tested as dual guide RNA, chemistry not given here) [CR003361] | 0.37% | 4.10% | 3.73% | 0.87% | 3.53% | 2.73% | – | – |
| ACCUCUGCAUGCUCAUGGAA (tested as dual guide RNA, chemistry not given here) [CR003371] | 1.87% | 16.20% | 14.47% | 0.73% | 3.40% | 2.67% | – | – |
| CCUCUGCAUGCUCAUGGAAU (tested as dual guide RNA, chemistry not given here) [CR003370] | 0.90% | 15.27% | 14.43% | 0.50% | 2.83% | 2.33% | – | – |
| AAUAGGAGUAGGGGCUCAGC (tested as dual guide RNA, chemistry not given here) [CR003384] | 0.23% | 1.87% | 1.73% | 0.20% | 1.70% | 1.50% | – | – |
| AUGCAGCUCUCCAGACUCAC (tested as dual guide RNA, chemistry not given here) [CR003358] | 0.80% | 5.70% | 4.93% | 1.17% | 3.90% | 2.73% | – | – |
| CUGAGGAGGAAUUUGUAGAA (tested as dual guide RNA, chemistry not given here) [CR003364] | 6.53% | 23.30% | 16.93% | 8.93% | 15.63% | 6.73% | – | – |
| UACUCACCUCUGCAUGCUCA (tested as dual guide RNA, chemistry not given here) [CR003372] | 1.77% | 12.17% | 10.47% | 0.63% | 1.77% | 1.13% | – | – |
| B1 | – | – | – | – | – | – | 5 | 5 |
| B2 | – | – | – | – | – | – | 19 | 19 |
| B3 | – | – | – | – | – | – | 0 | 0 |
| B4 | – | – | – | – | – | – | 13 | 13 |
| B5 | – | – | – | – | – | – | 12 | 12 |
| B6 | – | – | – | – | – | – | 3 | 3 |
| B7 | – | – | – | – | – | – | 4 | 4 |
| B8 | – | – | – | – | – | – | 11 | 11 |
| B9 | – | – | – | – | – | – | 4 | 4 |
